The numbers were not newly measured in patent US10596159B2, “Method and composition for treating cachexia and eating disorders” (India Globalization Capital, Inc., priority 2015, dated 2020), which cites them from elsewhere.

For data set [1] the following is noted: HIV-positive and cancer patients; Gorter, 1999.
Where [2] appears, read: advanced cancer patients, Ronga, et al. 2014.

Like-named read-outs stand apart in the source and are kept apart here.

With `CCCCCc1cc(O)c2c(c1)OC(C)(C)[C@@H]1CCC(C)=C[C@@H]21` [THC, Delta-9-tetrahydrocannabinol], in data set [1], the appetite result is given as “stimulation of appetite” and the body weight result is recorded as “increase of body weight”.

As for `CN1CCC(=C2c3ccccc3C=Cc3ccccc32)CC1.Cl` [cyproheptadine, 4-(5H-dibenzo [a,d]cyclohepten-5-ylidene)-1-methylpiperidine hydrochloride], under “Suzuki, et al. 2013”, the appetite stimulation result is reported as “effective in stimulating appetite” and the “effect on weight loss” value is on record as “only slight effects on weight loss”. For the same molecule, under setting [2], the appetite stimulation entry is given as “only mildly stimulated appetite” and the “effect on progressive weight loss” value is recorded as “did not prevent progressive weight loss”.
